Assay [1] concerns oncogenic signaling proteins in SDHB KD PC12 #5F7 cells. As to the kind of experiment: Western blot analysis of oncogenic signaling proteins. The format is cell-based, rat. How it is done: Cells were extracted from SDH-deficient patient tumor tissues, seeded into 96-well plates, and incubated for 24 hours in GIST culture medium. […] Right panel, Colony formation assay in renal carcinoma cells 7860 (SDHB-wild-type) and OS-RC-2 (SDHB-deficient). Cells were seeded into 6-well plates and incubated overnight in complete culture medium.
Harvested cells treated with dimethyl sulfoxide (DMSO) or indicated concentrations of compounds were lysed in radio-immunoprecipitation (RIPA) buffer (#P0013, Beyotime, China) containing a protease inhibitor cocktail (#20104ES08, Yeasen Biotechnology Co., Ltd., Shanghai) and a phosphatase inhibitor (#20109-A, #20109-B, Yeasen). Equal amounts of protein were separated by 4-20% sodium dodecyl sulfate polyacrylamide gel electrophoresis (SDS-PAGE) and transferred to nitrocellulose membranes. After being blocked with 3% bovine serum, membranes were incubated with primary antibodies, followed by horseradish peroxidase (HRP)-conjugated secondary antibody (#7074, anti-rabbit IgG, CST; #7076, anti-mouse IgG, CST). Finally, bound secondary antibodies were visualized using an ECL Western Blotting Detection Kit (Yeasen). […]

Assay [2] has as its system SDH-deficient primary GIST cells. As to the kind of experiment: Antiproliferation in SDH-deficient primary GIST cells (CellTiter 96 Aqueous assay, 72 hours). The assay is classed as cell-based, human. The following applies: all three primary cell lines derived from patients with SDH-deficient GIST. How it is done: Cells were seeded into 6-well plates and incubated overnight in complete culture medium.
All samples were collected at Sun Yat-sen University Cancer Center with informed consent obtained from each subject. The study, which involved human subjects, was approved by the Medical Ethics Committee of Sun Yat-sen University Cancer Center.
The tissues from GIST patient samples were sustained in Dulbecco's modified Eagle medium (DMEM)/F12 medium containing 1% antibiotic and washed with phosphate-buffered saline (PBS) and then cut into fragments by surgical ophthalmic scissors. The tissues were digested with 1 mg/mL collagenase IV at 37° C. for 30 minutes, followed by filtration of the suspension into single cells with a single-cell strainer centrifugation. […] The procedures were performed as per manufacturers' instructions.

The subject of the next assay is SDH-deficient GIST. As to the kind of experiment: Phase 1 trial HQP1351-SJ-0003: antitumor efficacy per RECIST v1.1 in SDH-deficient GIST subgroup. The format is in vivo, human. An excerpt:
NCT03594422). The dose escalation aspect of the study enrolled patients with advanced and/or metastatic GIST or other solid tumors that were refractory or had relapsed after treatment with at least one TKI. […] All AEs were graded according to the US National Cancer Institute (NCI) Common Terminology Criteria for Adverse Events (CTCAE; version 4.03). […] Urinalysis, coagulation, cardiac troponin I/T, lipase, amylase, and electrocardiograms were done at baseline; during cycles 1 and 2 (on days 1 and 15); cycle 3, 5, 7, and 9; every 3 cycles after cycle 9 (on day 1); and 14 days after the last dose of treatment. All patients underwent tumor imaging for response assessment via computed tomography or magnetic resonance imaging at screening and every two cycles (8 weeks) until progression or discontinuation. Target and nontarget lesions were assessed per Response Evaluation Criteria in Solid Tumors version 1.1 (RECIST v1.1). CBR was defined as the proportion of patients with a confirmed CR or PR of any duration or SD for at least 16 weeks from the start of treatment (CBR=CR+PR+SD≥16 weeks). ORR was defined as the proportion of patients with a confirmed CR or PR of any duration (ORR=CR+PR). PFS was defined as the time from the start of treatment to the date of first documented disease progression or death due to any cause, whichever occurred first. OS was defined as the time from start of treatment until the date of death. We evaluated antitumor activity in patients from the SDH-deficient GIST population who had at least one postbaseline disease assessment. We used Kaplan-Meier methods to estimate PFS, and OS; corresponding 95% CIs are provided. Efficacy results for patients with SDH-deficient GIST are reported separately. All statistical analyses were performed with SAS (version 9.3 or higher; SAS Institute, Cary, NC).

Assay [3] relates to GIST430 cell-derived xenograft. As to the kind of experiment: Imatinib-resistant GIST430 cell-derived xenograft model. The assay is classed as in vivo. As to conditions: olverembatinib 15 mg/kg every other day for 3 weeks; lisaftoclax 50 mg/kg daily for 3 weeks; alone or combined. An excerpt: (§1) Therefore, selective inhibition of BCL-2, aided by TKI-mediated MCL-1 and BCL-XL inhibition, markedly augmented cleavage of caspase-3 and poly(ADP-ribose) polymerase 1 (PARP-1), thus triggering apoptosis and subsequently enhancing antitumor effects.

The subject of assay [4] is BCL-XL and MCL-1 protein expression. As to the kind of experiment: Mechanism study: BCL-XL and MCL-1 protein expression. The format is cell-based. The following applies: possibly via inhibition of KIT signal pathway and STAT3.
Text: as §1

Regarding `Cc1ccc(C(=O)Nc2ccc(CN3CCN(C)CC3)c(C(F)(F)F)c2)cc1C#Cc1cnc2[nH]ncc2c1` [Olverembatinib, olverembatinib], the “effect on HIF-1α, HIF-2α, VEGFA, FGFR1, IGF-1R, p-FGFR1, p-IGF-1R, STAT3, p-STAT3, Src and downstream AKT, ERK1/2” value in assay [1] (24 h treatment, FIG. 2C) was “dose-dependently inhibited”. The “cleavage of caspase-3 and poly(ADP-ribose) polymerase 1 (apoptosis induction)” value in assay [1] (tumor cell lines treated with olverembatinib) is “Increased cleavage of caspase-3 and poly(ADP-ribose) polymerase 1”. Further, the “potency rank among TKIs” value in assay [2] is “most potent inhibitor”. Also, the overall survival rate in the assay with SDH-deficient GIST (SDH-deficient GIST cohort at data cut-off) worked out at 100%. The “complete response (CR)” value in the assay with SDH-deficient GIST (SDH-deficient GIST subgroup, 26 evaluable patients) was “No patient experienced a complete response”. Besides, the “confirmed overall responses per RECIST v1.1” value with SDH-deficient GIST (SDH-deficient GIST subgroup, median follow-up 17.0 months) was 6 of 26 evaluable patients. Further, in the assay with SDH-deficient GIST (SDH-deficient GIST, Kaplan-Meier estimate, RECIST v1.1), the “median progression-free survival (PFS)” value is listed as 25.7 months. Also, the “Tumor growth inhibition (TGI) rate” value in assay [3] worked out at 57.6%. The “effect on BCL-XL and MCL-1 protein expression” value in assay [4] was “downregulate BCL-XL and MCL-1 protein expression”.
